In US7718768B2, “Biologically active peptide [sequence]” (CMS Peptides Patent Holding Company Limited, priority 2001, dated 2010):
Marks after values point to notes of the source that are not given here. No end group written: not given here.

Tests used:
T lymphocyte [1] = assay: T lymphocyte IL-2 secretion test (HT-2 cell bioassay of ConA supernatant); type: in vivo, BALB/c mice; conditions: IFN-γ and IL-2 groups 3×10^5 IU/kg/day, X ± SD
Procedure: (§1) The above substances were all dissolved in 0.5 ml saline and injected intraperitoneal (i.p.) for 15 continuous days, once per day.
(§2) Spleen cells of density 1×10^6/ml were placed onto a 96 wells cell culture plate, 100 μl/well, three parallel wells each of the assay sample and control sample per mouse. To the assay wells, 100 μl/well ConA of 100 μg/ml in RPMI-1640 was added, and 100 μl/well plain RPMI-1640 was used for the controls. The cells were incubated for 66 hrs at 37° C., 5% CO2. The cells were then pelleted by centrifugation at 150 g for 10 minutes.
HT-2 cells at log phase were collected by centrifugation at 150 g for 10 minutes, and washed three times with cold Hank's solution by re-suspension and centrifugation. The collected HT-2 cells were re-suspended in RPMI-1640 and incubated at 37° C., 5% CO2 for 30 minutes. The cells were further washed twice with RPMI-1640 by re-suspension and centrifugation, and re-suspended to final concentration of 2×10^5/ml with RPMI-1640.
rIL-2 was diluted to the following concentration with RPMI-1640: 500 IU/ml, 250 IU/ml, 125 IU/ml, 62.5 IU/ml, 31.25 IU/ml, and […].
A 96 well cell culture plate was set up with three parallel wells per combination:
Negative control: 100 μl RPMI-1640+100 μl HT-2 cell suspension
rIL-2 standard: 100 μl rIL-2 solution+100 μl HT-2 cell suspension
Assay well: 100 μl diluted supernatant+100 μl HT-2 cell suspension
The plate was incubated at 37° C., 5% CO2 for 68 hours, then centrifuged at 150 g for 15 minutes and the supernatant removed. 100 μl 0.5 mg/ml MTT in RPMI-1640 without phenolsulfonphthalein was added into each well. After shaking for 3-4 minutes to re-suspend the cells, continue to incubate for another 4 hours. Samples were then centrifuged at 150 g for 15 minutes and the supernatant was removed. To each well, 120 μl 40 mM HCl-2-propanol was added, mixed for 3-4 minutes and OD analyzed at 570 nm, referenced at 630 nm with an ELISA plate reader.
The average OD of the three parallel wells of each dilution was taken and plotted against concentration on a semi-log paper, concentration on the X-axis. The concentration at 50% OD saturation was obtained for both the testing supernatant and rIL-2.

anti-SRBC antibody = assay: Sheep Red Blood Cell (SRBC) hemolysis test, anti-SRBC antibody formation; type: in vivo, BALB/c mice; conditions: SRBC on day 12, IFN-γ and IL-2 groups 3×10^5 IU/kg/day, X ± SD
Procedure: Sheep red blood cells (SRBC) were prepared by collecting blood from cervical vein and put into a sterile flask with glass beads. The flask was shaken for 3 minutes and the blood then mixed with Alsever solution (glucose 2.05 g, NaCl 0.4 g, […] 0.8 g, adjust to 100 ml with distilled water) and stored at 4° C. Immediately before use, samples were centrifuged at 130 g, 5 minutes to collect the SRBC. The cells were washed two times by re-suspension and centrifugation in normal saline. Then the cell pellet was collected by centrifugation at 180 g for 10 minutes and re-suspended in saline to make the final working SRBC suspension, 2% (v/v).
Complement was prepared by adding 10 volumes of fresh Cavy serum into one volume centrifuge packed SRBC, and then gently shaking for 30 minutes at 4° C. The SRBC was removed by centrifugation at 200 g for 10 minutes. 10 volumes of normal saline were added to obtain the working complement solution.
The test substances were administered as described in section 1.1, plus intraperitoneal injection 0.2 ml SRBC per mouse on day 12. On the day after the last test substance administration (day 16), blood was collected from the eye canthus and left at room temperature for one hour for serum exudation. After centrifugation at 200 g for 10 minutes, the serum was diluted by 500 times with normal saline.
To 1 ml diluted mouse serum of each mouse, 0.5 ml SRBC suspension was added. Ice cold. Then 1 ml working complement solution was added and incubated at 37° C. water bath for 10 minutes. Reactions were terminated by ice cold. Samples were then centrifuged at 200 g for 10 minutes to obtain the supernatant.
To 1 ml of this supernatant, 3 ml Drabkin solution was added and left at room temperature for 10 minutes. OD540nm was obtained.
Reference OD540nm was obtained by mixing 0.25 ml SRBC suspension with Drabkin solution to 4 ml and placed at room temperature for 10 minutes before OD540nm was taken. Sample serum index=(OD540nm of test sample[…]reference OD540nm)×500 3. The Effect of Peptides on the Phagocytosis Function of Mononuclear Phagocyte and the Weight of Immune Organ^[8,9].

NK cell = NK cell cytotoxicity activity test (YAC-1 target cells, MTT) on spleen cells of treated mice; type: in vivo, BALB/c mice; conditions: IFN-γ and IL-2 groups 3×10^5 IU/kg/day, X ± SD
Procedure: as §1
(§3) Ten mice per group. The day after the last test substance administration, the mice were sacrificed by cervical dislocation. The spleen was isolated aseptically and manually dispersed in cold D-Hank's solution using an injection needle. The dispersed cell suspension was further sieved through a 100 gauge 150 μm diameter stainless steel sieve. After centrifugation at 200 g for 10 minutes, the supernatant was discarded. The cell pellet was re-suspended in 10 volume of Tris-NH4Cl buffer and then kept standing still for 10 minutes at room temperature. The suspended cells were collected by centrifugation at 150 g for 10 minutes. The cells were washed 2-4 times with cold D-Hank's solution by re-suspending and collecting by centrifugation with condition as described above. The washed cells were then diluted to the desired cell densities by RPMI-1640 culture medium, containing 10% fetal bovine serum.
Mice spleen cells were prepared to 4×10^6/ml as described in section 1.1 above. Target cells YAC-1 were brought to log phase and adjusted to 1×10^5/ml. Using a 96 wells cell culture plate, 100 μl mouse spleen cells and 100 μl culture medium were added to the control well containing only the spleen cells; 100 μl target cells and 100 μl culture medium were added to the control well containing only target cells; 100 μl mouse spleen cells and 100 μl target cells were added to the NK activity assay well. Three parallel sets of the above were prepared per mouse.
Samples were centrifuged at 150 g for 10 minutes to collect the cells. The supernatant was discarded and 50 μl/well MTT of 1 mg/ml was added. The reaction mixture was then shaken for 2 minutes, and incubated at 37° C., 5% CO2 for 4 hours. The supernatant was discarded after centrifugation at 150 g for 10 minutes. 120 μl 40 mM HCl-2-propanol was added and shaken for 3 minutes. An ELISA reader was used to obtain OD570nm of each well referenced at 630 nm.

T lymphocyte [2] = assay: T lymphocyte transformation test (ConA, MTT) on spleen cells of treated mice; type: in vivo, BALB/c mice; parameters: key: OD of assay wells divided by OD of control wells; conditions: peptide 500 μg/kg/day i.p. 15 days; IFN-γ and IL-2 groups 3×10^5 IU/kg/day; X ± SD
Procedure: as §1, §3, §2
50 μl/well MTT of 1 mg/ml in RPMI-1640 was added to the cell pellet and the cells re-suspended by shaking for 2 minutes. The incubation was continued for 4 hours. The supernatant was discarded after centrifugation at 150 g for 10 minutes. 120 μl 40 mM HCl-2-propanol was added to the cell pellet and shaken for 3 minutes. to obtain OD570nm of each well referenced at 630 nm. An ELISA reader was used
Each mouse formed three assay wells and three control wells. The Stimulation Index (SI) of each mouse was obtained by first deriving the average OD of the three parallel wells, then dividing the value of the assay wells by the control wells.

[3] = immunity organ weight test (thymus gland index, spleen index); type: in vivo, BALB/c mice; conditions: X ± SD
Procedure: as §1
(§4) One day after the last test substance administration (day 16), the liver, spleen, and thymus gland were separated and blotted dry with filter paper and weighed. The phagocytosis index α was calculated as below: α=(^3√K)(W÷WLS) key: W: body weight WLS: weight of liver plus spleen Thymus gland index(%)=(thymus weight/body weight)×100% Spleen index(%)=(spleen weight/body weight)×100%

T lymphocyte [4] = test system: T lymphocyte; parameters: species or system BALB/c mice; conditions: mouse, in vivo, ip
mononuclear phagocyte = assay: carbon particle clearance test, phagocytotic activity of mononuclear phagocyte; type: in vivo, BALB/c mice; parameters: key: α = (cube root of K)×(body weight ÷ liver+spleen weight); conditions: IFN-γ and IL-2 groups 3×10^5 IU/kg/day, X ± SD
Procedure: On the next day after the last test substance administration (day 16), the mice were injected with […] body weight India ink (5 times dilution with normal saline) from the tail vein.
One minute and five minutes after Indian ink injection, 20 μl blood was obtained from the eye can thus with a heparinized tubing. The blood was mixed with 2 ml 0.1% w/v Na2CO3 and then OD680nm obtained. The outline clear index K was calculated by the following formula: K=(lgA1−lgA2)÷(t2−t1) Key: A1: OD680nm at first minute A2: OD680nm at fifth minute t2: 5 minutes […]
as §4

[5] = peptide 0.5 μg/kg/day i.p. 15 days
[6] = peptide 5 μg/kg/day i.p. 15 days
[7] = peptide 50 μg/kg/day i.p. 15 days
[8] = peptide 500 μg/kg/day i.p. 15 days
[9] = peptide 0.5 μg/kg/day i.p. 15 days, IFN-γ and IL-2 groups 3×10^5 IU/kg/day
[10] = peptide 5 μg/kg/day i.p. 15 days, IFN-γ and IL-2 groups 3×10^5 IU/kg/day
[11] = peptide 50 μg/kg/day i.p. 15 days, IFN-γ and IL-2 groups 3×10^5 IU/kg/day
[12] = peptide 500 μg/kg/day i.p. 15 days, IFN-γ and IL-2 groups 3×10^5 IU/kg/day

| Substance | activity of T lymphocyte in secreting IL-2 (T lymphocyte [1]; [5]) | activity of T lymphocyte in secreting IL-2 (T lymphocyte [1]; [6]) [IU] | anti-SRBC antibody formation (sample serum index) (anti-SRBC antibody; [6]) | anti-SRBC antibody formation (sample serum index) (anti-SRBC antibody; [7]) | anti-SRBC antibody formation (sample serum index) (anti-SRBC antibody; [8]) | NK cell cytotoxic activity (NK cell activity index) (NK cell; [5]) [%] | NK cell cytotoxic activity (NK cell activity index) (NK cell; [6]) [%] | NK cell cytotoxic activity (NK cell activity index) (NK cell; [7]) | stimulation index (T lymphocyte transformation) (T lymphocyte [2]) | weight of thymus gland (thymus gland index) [3, 9] | weight of thymus gland (thymus gland index) [3, 10] | weight of thymus gland (thymus gland index) [3, 11] | activity of T lymphocyte in secreting IFN (T lymphocyte [4]) | anti-SRBC antibody formation (sample serum index) (anti-SRBC antibody; [5]) | NK cell cytotoxic activity (NK cell activity index) (NK cell; [8]) [%] | weight of spleen (spleen index) [3, 8] [%] | phagocytotic index (mononuclear phagocyte; [6]) | weight of thymus gland (thymus gland index) [3, 12] | phagocytotic index (mononuclear phagocyte; [8]) | weight of spleen (spleen index) [3, 9] |
| --- | --- | --- | --- | --- | --- | --- | --- | --- | --- | --- | --- | --- | --- | --- | --- | --- | --- | --- | --- | --- |
| LGMEACGIHETTY [CMS012] | 59 ± 13 IU | 65 ± 16 | 81 ± 22*^@ Unit | 50 ± 14* Unit | 141 ± 21*^@^ Unit | 77 ± 6 | 85 ± 7 | 40 ± 9 % | 1.6 ± 0.2 | 0.22 ± 0.06*^ % | 0.27 ± 0.06*^@^ % | 0.26 ± 0.02*^@^ % | 86 ± 9 IU | – | – | – | – | – | – | – |
| LRVAPEEHPVL [CMS013] | – | – | 93 ± 28*^@ Unit | 70 ± 9*^@ Unit | 80 ± 16*^@ Unit | – | – | – | – | – | 0.21 ± 0.05 % | – | 154 ± 15*^@^ IU | 7 ± 1* Unit | 84 ± 9 | 0.44 ± 0.07 | 6.7 ± 0.2 | – | – | – |
| MATAASSSSL [CMS021] | – | – | 82 ± 30*^@ Unit | 94 ± 20*^@^ Unit | – | – | – | 88 ± 12*^@^ % | 1.6 ± 0.1 | – | 0.20 ± 0.06 % | – | 143 ± 17*^@^ IU | 57 ± 9*^@ Unit | – | 0.36 ± 0.04 | – | – | – | – |
| Phe Glu Pro Ser Phe (FEPSF; listed as Sus scrofa) [CMS028] | – | – | 121 ± 48*^@^ Unit | – | – | 79 ± 3 | – | – | – | 0.20 ± 0.06 % | 0.28 ± 0.06*^@^ % | 0.18 ± 0.04 % | 96 ± 13 IU | 18 ± 5* Unit | 90 ± 5 | – | – | 0.19 ± 0.02 % | – | – |
| Tyr Ser Phe (YSF; listed as Sus scrofa) [CMS022] | 109 ± 14*^@^ IU | – | – | 110 ± 16*^@^ Unit | 68 ± 31* Unit | 73 ± 11 | – | – | – | 0.21 ± 0.06 % | 0.25 ± 0.04*^@^ % | 0.30 ± 0.03*^@^ % | 145 ± 13*^@^ IU | – | – | – | – | 0.26 ± 0.05*^@^ % | 7.4 ± 0.6*^@^ | – |
| VGMGQKDSYV [CMS020] | – | 63 ± 11 | 89 ± 24*^@ Unit | – | 155 ± 35*^@^ Unit | – | 91 ± 6 | – | – | 0.23 ± 0.05*^@^ % | 0.24 ± 0.07*^@^ % | 0.27 ± 0.03*^@^ % | – | 10 ± 3* Unit | – | – | – | 0.19 ± 0.04 % | 6.4 ± 0.6 | 0.68 ± 0.09*^@^ % |
